The results in this text go back to US20110118238A1, “2-ANILINOPURIN-8-ONES AS INHIBITORS OF TTK/MPS1 FOR THE TREATMENT OF PROLIFERATIVE DISORDERS” (ASTRAZENECA AB, priority 2007, published 2011).

This assay has as its target T1, N-terminal GST tagged full length human TTK kinase (Homo sapiens, UniProt P33981).
T1 construct: N-terminal GST tagged full length human TTK kinase; GST (N); made in house; host or cells: insect cells
T1 sequence (P33981 1-857): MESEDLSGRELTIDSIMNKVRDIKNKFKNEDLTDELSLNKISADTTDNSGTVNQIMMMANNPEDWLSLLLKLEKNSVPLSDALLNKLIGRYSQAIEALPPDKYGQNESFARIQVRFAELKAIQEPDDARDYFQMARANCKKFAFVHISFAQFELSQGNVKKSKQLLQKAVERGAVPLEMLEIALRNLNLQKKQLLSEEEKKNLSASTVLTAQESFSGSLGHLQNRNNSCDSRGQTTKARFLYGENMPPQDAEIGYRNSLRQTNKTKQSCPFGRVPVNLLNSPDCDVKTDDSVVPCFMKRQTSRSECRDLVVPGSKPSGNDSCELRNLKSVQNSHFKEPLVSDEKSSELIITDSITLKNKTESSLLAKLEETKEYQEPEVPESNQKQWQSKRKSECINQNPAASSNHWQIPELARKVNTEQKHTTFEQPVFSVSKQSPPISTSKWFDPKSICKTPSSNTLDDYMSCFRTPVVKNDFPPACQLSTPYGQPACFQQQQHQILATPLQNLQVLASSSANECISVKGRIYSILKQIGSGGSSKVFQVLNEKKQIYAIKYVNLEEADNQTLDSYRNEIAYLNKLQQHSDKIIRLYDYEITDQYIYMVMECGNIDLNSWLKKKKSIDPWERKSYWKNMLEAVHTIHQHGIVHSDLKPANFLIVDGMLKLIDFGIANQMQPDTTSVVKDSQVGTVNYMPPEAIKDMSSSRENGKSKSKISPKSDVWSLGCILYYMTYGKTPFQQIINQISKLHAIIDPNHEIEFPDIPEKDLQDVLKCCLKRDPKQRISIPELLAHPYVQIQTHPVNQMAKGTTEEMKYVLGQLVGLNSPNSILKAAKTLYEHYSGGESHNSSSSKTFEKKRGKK
Kind of assay: In Vitro TTK Kinase Assay 2 (Caliper LabChip LC3000). The class given is biochemical. As to conditions: recombinant TTK, 12 μM ATP, read-out: EAA2: Enzyme Assay Activity (In Vitro TTK kinase assay 2). As to the method:
Each reaction was stopped by the addition of EDTA to a concentration of 40 mM in a solution which also comprised 0.1% coating reagent (Caliper LS), 100 mM HEPES pH 7.5, 0.015% v/v Brij™-35 and 5% DMSO. The stopped enzyme reactions were sipped through capillaries onto a Caliper chip where the peptide substrate and phosphorylated product were separated and detected via laser-induced fluorescence.
As for `COc1cc(C(=O)O)ccc1Nc1ncc2c(n1)n(C1CCCC1)c(=O)n2C` [Example 49, 4-[(9-Cyclopentyl-7-methyl-8-oxo-8,9-dihydro-7H-purin-2-yl)-amino]-3-methoxybenzoic acid], the IC50 worked out at 72.4 nM.
Under `CCOc1cc(N2CCN(C)CC2)ccc1Nc1ncc2c(n1)n(C(C)C)c(=O)n2C` [Example 46, 2-{[2-Ethoxy-4-(4-methylpiperazin-1-yl)phenyl]amino}-9-isopropyl-7-methyl-7,9-dihydro-8H-purin-8-one] stands 144 nM; under `COc1cc(C(=O)NCCCCN2CCCC2)ccc1Nc1ncc2c(n1)n(C1CCCC1)c(=O)n2C` [Example 66, 4-[(9-Cyclopentyl-7-methyl-8-oxo-8,9-dihydro-7H-purin-2-yl)-amino]-3-methoxy-N-(4-pyrrolidin-1-ylbutyl)benzamide], 132 nM.
With `COc1cc(C(=O)N[C@@H]2CCNC2)ccc1Nc1ncc2c(n1)n(C1CCCC1)c(=O)n2C` [Example 68, 4-[(9-Cyclopentyl-7-methyl-8-oxo-8,9-dihydro-7H-purin-2-yl)-amino]-3-methoxy-N-[(3R)-pyrrolidin-3-yl]benzamide] the figure was 65.3 nM; with `COc1cc(N2CCN(C)CC2)ccc1Nc1ncc2c(n1)n(C1CCNCC1)c(=O)n2C` [Example 70, 2-{[2-Methoxy-4-(4-methylpiperazin-1-yl)phenyl]amino}-7-methyl-9-piperidin-4-yl-7,9-dihydro-8H-purin-8-one], 5360 nM; with `COc1cc(C(=O)N(C)C)ccc1Nc1ncc2c(n1)n(C1CCCC1)c(=O)n2C` [Example 65, 4-[(9-Cyclopentyl-7-methyl-8-oxo-8,9-dihydro-7H-purin-2-yl)-amino]-3-methoxy-N,N-dimethylbenzamide], 27 nM.
As to `CC(C)n1c(=O)n(C)c2cnc(Nc3ccc(C(=O)NC4CCN(C)CC4)c(F)c3)nc21` [Example 39, 2-Fluoro-4-[(9-isopropyl-7-methyl-8-oxo-8,9-dihydro-7H-purin-2-yl)-amino]-N-(1-methylpiperidin-4-yl)benzamide], the IC50 was determined as 2460 nM.
Under `COc1cc(C(=O)NCCCN(C)C)ccc1Nc1ncc2c(n1)n(C1CCCC1)c(=O)n2C` [Example 62, 4-[(9-Cyclopentyl-7-methyl-8-oxo-8,9-dihydro-7H-purin-2-yl)-amino]-N-[3-(dimethylamino)propyl]-3-methoxybenzamide] stands 50.9 nM; under `COc1cc(C(=O)N(C)CC2CCN(C(C)C)C2)ccc1Nc1ncc2c(n1)n(C1CCCC1)c(=O)n2C` (stereo not shown) [Example 53, 4-[(9-Cyclopentyl-7-methyl-8-oxo-8,9-dihydro-7H-purin-2-yl)-amino]-N-[(1-isopropylpyrrolidin-3-yl)methyl]-3-methoxy-N-methylbenzamide], 231 nM; under `Cn1c(=O)n(C2CCCC2)c2nc(Nc3ccc(N4CCOCC4)c(Cl)c3)ncc21` [Example 72, 2-[(3-Chloro-4-morpholin-4-ylphenyl)amino]-9-cyclopentyl-7-methyl-7,9-dihydro-8H-purin-8-one], 27 nM.
On to `Cn1c(=O)n(C2CCCC2)c2nc(Nc3ccc(CCO)cc3)ncc21` [Example 73, 9-Cyclopentyl-2-{[4-(2-hydroxyethyl)phenyl]amino}-7-methyl-7,9-dihydro-8H-purin-8-one], for which the IC50 amounted to 106 nM.
Turning to `Cn1c(=O)n(C2CCCC2)c2nc(Nc3ccc(N4CCCCC4)cc3)ncc21` [Example 77, 9-Cyclopentyl-7-methyl-2-[(4-piperidin-1-ylphenyl)amino]-7,9-dihydro-8H-purin-8-one], the IC50 amounted to 109 nM.
With `Cn1c(=O)n(C2CCCC2)c2nc(Nc3ccc(C(=O)c4ccccc4)cc3)ncc21` [Example 71, 2-[(4-Benzoylphenyl)amino]-9-cyclopentyl-7-methyl-7,9-dihydro-8H-purin-8-one] the figure was 586 nM.
